Here are results for 1 molecule from ChEMBL document CHEMBL5150044, “Macrocyclization of Quinazoline-Based EGFR Inhibitors Leads to Exclusive Mutant Selectivity for EGFR L858R and Del19” (J Med Chem, 2022).

Calls of active or inactive are those of the source. The calls are words filed in the database; no cut-off is given here.

In assay [1] the target is T1, Dual specificity tyrosine-phosphorylation-regulated kinase 2 (Homo sapiens) (UniProt Q92630).
T1 sequence (whole entry): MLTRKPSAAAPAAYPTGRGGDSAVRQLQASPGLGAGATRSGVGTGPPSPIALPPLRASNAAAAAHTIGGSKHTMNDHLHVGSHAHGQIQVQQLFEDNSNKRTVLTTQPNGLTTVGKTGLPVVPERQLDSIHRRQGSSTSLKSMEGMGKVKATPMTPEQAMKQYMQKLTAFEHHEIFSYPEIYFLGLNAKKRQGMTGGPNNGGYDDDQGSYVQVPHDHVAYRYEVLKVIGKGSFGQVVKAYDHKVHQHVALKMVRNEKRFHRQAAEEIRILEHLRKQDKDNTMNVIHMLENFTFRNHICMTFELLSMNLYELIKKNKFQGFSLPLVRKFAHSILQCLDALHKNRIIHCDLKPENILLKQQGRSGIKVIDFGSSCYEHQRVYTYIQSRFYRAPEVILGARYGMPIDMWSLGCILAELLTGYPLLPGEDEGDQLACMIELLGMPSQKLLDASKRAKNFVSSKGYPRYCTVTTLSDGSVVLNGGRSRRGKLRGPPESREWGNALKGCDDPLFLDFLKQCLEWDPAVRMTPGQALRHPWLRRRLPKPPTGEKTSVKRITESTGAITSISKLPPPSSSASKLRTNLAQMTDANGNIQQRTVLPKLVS
The experiment in a line: Binding affinity to recombinant DYRK2 (unknown origin) assessed as change in melting temperature 10 uM by differential scanning fluorimetry. (DSF heats the sample and reads unfolding from a dye or from intrinsic fluorescence.)

Assay [2] has as its target T2, Serine/threonine-protein kinase 17A (Homo sapiens) (UniProt Q9UEE5).
T2 sequence (whole entry): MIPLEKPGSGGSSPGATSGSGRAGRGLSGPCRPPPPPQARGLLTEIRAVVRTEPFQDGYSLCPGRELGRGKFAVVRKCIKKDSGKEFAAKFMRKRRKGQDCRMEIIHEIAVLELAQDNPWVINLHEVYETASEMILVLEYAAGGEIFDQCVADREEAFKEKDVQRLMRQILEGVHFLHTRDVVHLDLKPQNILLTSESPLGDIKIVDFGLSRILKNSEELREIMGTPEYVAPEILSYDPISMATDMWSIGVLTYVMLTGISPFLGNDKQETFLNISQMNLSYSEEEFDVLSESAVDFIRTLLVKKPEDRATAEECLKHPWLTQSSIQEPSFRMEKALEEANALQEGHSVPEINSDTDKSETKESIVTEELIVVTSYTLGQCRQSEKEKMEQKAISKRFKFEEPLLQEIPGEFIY
The experiment in a line: Binding affinity to recombinant STK17A (unknown origin) assessed as change in melting temperature 10 uM by differential scanning fluorimetry.

In assay [3] the target is Epidermal growth factor receptor (Homo sapiens, UniProt P00533).
Epidermal growth factor receptor (Homo sapiens, UniProt P00533), sequence (P00533 whole entry): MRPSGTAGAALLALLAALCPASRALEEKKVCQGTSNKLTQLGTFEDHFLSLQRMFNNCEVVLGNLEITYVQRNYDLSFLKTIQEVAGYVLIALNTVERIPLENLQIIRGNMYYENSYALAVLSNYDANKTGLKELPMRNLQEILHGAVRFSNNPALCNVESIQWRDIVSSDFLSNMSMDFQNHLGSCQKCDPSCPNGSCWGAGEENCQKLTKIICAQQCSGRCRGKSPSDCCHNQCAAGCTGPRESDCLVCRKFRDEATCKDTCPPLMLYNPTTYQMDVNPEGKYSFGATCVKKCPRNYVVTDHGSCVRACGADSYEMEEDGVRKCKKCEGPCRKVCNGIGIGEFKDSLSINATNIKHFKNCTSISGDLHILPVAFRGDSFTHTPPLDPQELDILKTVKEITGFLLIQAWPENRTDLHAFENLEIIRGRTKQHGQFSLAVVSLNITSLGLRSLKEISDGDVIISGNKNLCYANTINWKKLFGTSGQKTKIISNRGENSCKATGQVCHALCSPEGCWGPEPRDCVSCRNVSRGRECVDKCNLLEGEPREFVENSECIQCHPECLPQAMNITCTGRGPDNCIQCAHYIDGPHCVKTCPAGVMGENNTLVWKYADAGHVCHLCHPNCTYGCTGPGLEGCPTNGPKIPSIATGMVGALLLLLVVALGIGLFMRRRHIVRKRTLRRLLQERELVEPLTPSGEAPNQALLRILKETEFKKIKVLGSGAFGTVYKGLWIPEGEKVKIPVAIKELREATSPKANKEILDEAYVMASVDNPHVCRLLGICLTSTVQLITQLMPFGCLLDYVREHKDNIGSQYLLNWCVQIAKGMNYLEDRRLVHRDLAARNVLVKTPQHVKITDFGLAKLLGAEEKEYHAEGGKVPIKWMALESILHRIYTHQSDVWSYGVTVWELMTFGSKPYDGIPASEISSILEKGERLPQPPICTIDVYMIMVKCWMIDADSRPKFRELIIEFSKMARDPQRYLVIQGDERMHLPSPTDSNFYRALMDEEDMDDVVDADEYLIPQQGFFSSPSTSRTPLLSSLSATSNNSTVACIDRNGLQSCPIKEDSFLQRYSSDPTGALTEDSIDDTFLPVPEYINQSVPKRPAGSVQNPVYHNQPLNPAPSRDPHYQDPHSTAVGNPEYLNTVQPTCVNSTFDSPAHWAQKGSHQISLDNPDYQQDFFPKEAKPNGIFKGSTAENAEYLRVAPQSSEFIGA
In assay [4] the target is Mitogen-activated protein kinase 1 and 3 (ERK2 and ERK1) (Mus musculus) (UniProt P63085+Q63844). The experiment in a line: Inhibition of ERK1/2 phosphorylation in mouse BaF3 cells harboring Del19 mutant assessed as ERK1/2 phosphorylation at 10 to 1000 nM incubated for 8 hrs by Western blot analysis. The assay is classed as cell-based. The conditions noted are these: dose 10-1000 nM.
Mitogen-activated protein kinase 1 and 3 (ERK2 and ERK1) (Mus musculus), sequence (P63085 whole entry, looked up): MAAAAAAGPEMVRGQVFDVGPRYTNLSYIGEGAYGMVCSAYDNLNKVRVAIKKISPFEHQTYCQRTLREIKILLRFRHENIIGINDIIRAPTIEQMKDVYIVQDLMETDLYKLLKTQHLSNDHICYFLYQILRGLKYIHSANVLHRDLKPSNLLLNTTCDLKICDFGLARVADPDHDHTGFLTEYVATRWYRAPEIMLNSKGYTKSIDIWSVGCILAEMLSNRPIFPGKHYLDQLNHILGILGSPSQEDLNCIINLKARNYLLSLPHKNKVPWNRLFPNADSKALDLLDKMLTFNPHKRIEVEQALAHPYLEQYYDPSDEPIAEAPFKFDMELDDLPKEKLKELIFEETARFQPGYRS
Mitogen-activated protein kinase 1 and 3 (ERK2 and ERK1) (Mus musculus), sequence (Q63844 whole entry, looked up): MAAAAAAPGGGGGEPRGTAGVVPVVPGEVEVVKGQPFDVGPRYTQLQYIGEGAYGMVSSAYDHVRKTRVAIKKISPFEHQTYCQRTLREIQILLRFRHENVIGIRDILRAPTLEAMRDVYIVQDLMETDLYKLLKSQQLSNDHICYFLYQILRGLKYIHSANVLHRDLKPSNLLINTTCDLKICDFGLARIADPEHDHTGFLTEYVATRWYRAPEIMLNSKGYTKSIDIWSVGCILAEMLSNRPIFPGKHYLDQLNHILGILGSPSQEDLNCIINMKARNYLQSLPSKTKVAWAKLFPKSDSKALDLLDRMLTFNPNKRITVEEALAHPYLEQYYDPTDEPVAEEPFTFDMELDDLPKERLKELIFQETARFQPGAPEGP

Assay [5] has as its target RAC-alpha serine/threonine-protein kinase (Mus musculus) (UniProt P31750). The format is cell-based. The following applies: BaF3, dose 10-1000 nM, time 8.0 hrs.
Assay [6] deals with BaF3. The experiment in a line: cells. The following applies: Mus musculus, BaF3, 72 h.
Assay [7] deals with Epidermal growth factor receptor (Homo sapiens, UniProt P00533, EX19DEL).
Epidermal growth factor receptor (Homo sapiens, UniProt P00533, EX19DEL), sequence (P00533 whole entry, looked up, stated change not applied): as the sequence (P00533 whole entry) above
Assay [8] relates to Epidermal growth factor receptor (Homo sapiens), P04626+P00533+Q15303+P21860 [L858R]. The conditions noted are these: Mus musculus; BaF3; dose 10-1000 nM, time 8.0 hrs.

RAC-alpha serine/threonine-protein kinase (Mus musculus), sequence (P31750 whole entry): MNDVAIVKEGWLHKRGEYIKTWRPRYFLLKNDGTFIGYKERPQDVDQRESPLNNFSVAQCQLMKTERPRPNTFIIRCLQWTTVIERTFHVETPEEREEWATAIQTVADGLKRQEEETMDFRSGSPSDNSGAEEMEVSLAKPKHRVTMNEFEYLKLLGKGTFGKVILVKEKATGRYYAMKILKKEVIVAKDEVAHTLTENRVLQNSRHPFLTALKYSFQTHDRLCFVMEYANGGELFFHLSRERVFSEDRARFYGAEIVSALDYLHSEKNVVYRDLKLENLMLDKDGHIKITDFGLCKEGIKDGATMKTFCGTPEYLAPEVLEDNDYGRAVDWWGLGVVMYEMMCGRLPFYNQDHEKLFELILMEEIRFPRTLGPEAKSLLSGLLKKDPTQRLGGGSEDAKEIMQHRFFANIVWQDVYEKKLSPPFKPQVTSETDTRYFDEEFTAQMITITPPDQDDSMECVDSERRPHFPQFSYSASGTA

As a reminder, the ΔTm is the change in melting temperature against a reference sample. One may read the IC50 as the concentration that gives 50% inhibition. For the molecule `COc1cc2ncnc(Nc3cc(Cl)c(F)cc3O)c2cc1O`, the thermal shift (ΔTm) in assay [1] and in assay [2] was more than 3 °C throughout. The concentration for half-maximal inhibition (IC50) amounted to 1800 nM in assay [3], 141 nM in assay [6] and 11.5 nM in assay [7]. The inhibition result in assay [4], in assay [5] and in assay [8] was “Active” throughout.
